Experimental data from patent publication US5614548A, “Quaternary amine containing ether or ester lipid derivatives and therapeutic compositions” (priority 1994, dated 1997).
Like-named read-outs stand apart in the source and are kept apart here.

Key:
[1] = system: HL60 human leukemia cell line; experiment: HL60 cell growth inhibition (trypan blue, 48 h); format: cell-based; conditions: Homo sapiens, HL-60, 48 h, HL60, 48 hours; read-out: ID50 (the source's name)
Description: A number of the compounds disclosed herein have been tested against the HL60 human leukemia cell line to assess their cytotoxic potential. These analogs were investigated in parallel with ET-18-OMe which was used as the reference compound. The methodologies used in this investigation were the same as described in A. Noseda, M. Berens, C. Piantadosi, and E. J. Modest, Lipids 22, 878-883, 1987. In brief, HL60 cells at a concentration of […] were incubated in wells with one milliliter medium with the experimental drug in parallel with the same concentration of cells with ET-18-OMe (standard) or EtOH (control). After 48 hours of incubation the cells were counted using the trypan blue dye exclusion technique to determine the effect of the drug on cell growth. The experimental drug and ET-18-OMe were tested at the same concentrations, e.g., 10, 5, 2.5 and 1.25 μM.

[2] = system: Protein Kinase C; experiment: Protein Kinase C activity (32P incorporation into histone); format: biochemical, human (HL-60 cells)
Description: PKC was prepared and assayed as described previously. See Daniel, L. W. et al., Biochem. Biophys. Res. Comm. 151, 291 (1988). In brief, HL-60 cells were grown in 75 milliliter flasks, harvested and washed with ice-cold normal saline. After centrifugation (600×g, 5 minutes, 4° Centigrade), the cell pellet was resuspended (20 mM Tris-HCl, pH 7.5, 2 mM EDTA, 10 mM EGTA, 50 mM 2-mercaptoethanol, 2 mM phenylmethylsulfonyl fluoride) and sonicated for 20 s with a stepped microprobe sonciator. Unbroken cells were removed by centrifugation as above and the supernatant centrifuged (65,000×g, 90 minutes, 4° Centigrade). The supernatant from this step (cytosol) was then fractionated on a 1×8 cm DEAE-Sephacel column after addition to sucrose to a final concentration of 10%. After equilibrating the column (20 mM Tris, pH 7.5, 0.2 mM EDTA, 0.2 mM EGTA, 50 mM 2-mercaptoethanol, 10% sucrose), the sample was loaded and unbound material was washed through with 40 milliliters of the equilibrating buffer. The PKC was eluted by a gradient from 0-0.5M NaCl in the buffer described above. Fractions of 1 milliliter were collected at 25 milliliters per hour and 0.05 milliliter aliquots assayed for PKC activity as described below. The fractions with the highest activity were pooled and used in further experiments.
The assays were done at pH 7.5 in a total volume of 0.25 milliliter and all tubes contained 25 mM Tris, 10 mM MgCl2, 40 μg per milliliter histone, 10 μM ATP (including 1 μCi of [gamma-^32 P]-ATP), 0.1 mM CaCl2, 20 μg per milliliter phosphatidylserine, 0.05 milliliter of the PKC preparation and 2.5 μM of oleoylacetylglycerol (OAG). Enzymatic activity was determined as the incorporation of ^32 P from [gamma-^32 P]-ATP) into histone in the presence of Ca^2+, phosphatidylserine, and OAG. Reactions were initiated by the addition of the enzyme preparation and halted after 20 minutes at 30° Centigrade by the addition of 0.05 milliliters of bovine serum albumin (10 milligrams per milliliter) and 1 milliliter 25% ice-cold trichloroacetic acid. The tubes were kept on ice and then filtered in a millipore vacuum box using Millipore® HA filters and washed with 25% trichloroacetic acid. The radioactivity bound to the filters was determined by scintillation spectrometry in 5 milliliters Budget Solve®. […] The analog to be tested was dissolved in ethanol, and added directly into the reaction mixture before the addition of PKC. As a control, 0.1% ethanol was included in the samples with the enzyme but with no inhibitor.

[3] = system: KB cells; experiment: Cytostatic activity on KB cells; format: cell-based; conditions: Homo sapiens, read-out: IC50 KB
Description: (§1) All cells were grown in Eagle's minimum essential medium supplemented with 10% fetal bovine serum with the exception of HL-60 and K562-4 cells which were grown in RPMI 1640 medium supplemented with 10% fetal bovine serum. The KB and MH1 C1 cells, from a human nasopharyngeal carcinoma and rat hepatoma, respectively, were from American Type Culture Collection. The ChaGo cells, a human lung carcinoma, was generously provided by Dr. A. H. Tashjian. The human promyeloblastic leukemia cells, K562-4 were kindly supplied by Dr. Bismarck Lozzio. HL-60 cells, a human promyelocytic leukemia, and P388 cells, a mouse leukemia, were obtained from Dr. Y.-C. Cheng. The 77 cells were put into culture by us by excising the 7777, Morris hepatoma from a rat graciously supplied by the late Dr. H. P. Morris.
(§2) Cells were transferred or removed from monolayers for counting after a one or two minute incubation with 0.02% sodium ethylenediamine tetraacetate in phosphate-buffered saline to dislodge the cells. Flasks were seeded at a density of 1×10^3 cells per cm^2 or 2×10^4 per milliliter for suspension cultures. The HL-60 and K562-4 suspension cultures were used about 24 hours after seeding. The compounds to be tested were diluted to various concentrations and added to the monolayer cultures. All of the test compounds were dissolved in 10% dimethyl sulfoxide (DMSO) at concentrations that would give a final DMSO concentration of 0.1%. Control flasks contained 0.1% DMSO. Control cell replication was followed until approximately three doublings had occurred, and then all of the treated cells were counted.
(§3) The KB cells represented cells with low alkyl cleavage activity (less than the detectable level of 0.1-0.2 units per milligram protein by our assay procedure) and the 77 cells represented cells similar to normal cells with relatively high alkyl cleavage activity (1.6 units per milligram of protein). Our value for the cleavage activity of cultured 77 cells agrees well with the value of 1.4 units per milligram of protein reported by Soodsma et al, Cancer Res. 30, 309 (1970), for freshly excised 7777 Morris hepatoma tissue. In further confirmation of our assay procedure, we obtained a value of 12.6±4.1 units per milligram of protein in excised rat liver compared to 7.3 units per milligram of protein in rat liver measured by Soodsma et al.

[4] = system: 77 cells; experiment: Cytostatic activity on 77 cells; format: cell-based, rat; conditions: for IC50: 77 cells, after controls doubled three times; for 77/KB: ratio of IC50 values ± standard error of the quotient
Description: as §1, §2, §3

[5] = KB cells, after controls doubled three times

SMILES	Percent Protein Kinase C Activity Retained ([2]; 1.25 μM) [%]	Percent Protein Kinase C Activity Retained ([2]; 2.5 μM) [%]	Percent Protein Kinase C Activity Retained ([2]; 5.0 μM) [%]	Percent Protein Kinase C Activity Retained ([2]; 10.0 μM) [%]	Percent Protein Kinase C Activity Retained ([2]; 20.0 μM) [%]	Percent Protein Kinase C Activity Retained ([2]; 40.0 μM) [%]	IC50 [3, 5] [nM]	other results
CCCCCCCCCCCCCCCCCCSCC(C[N+](C)(C)CCCO)OC (racemic) [CJM 44, (±)-3-octadecylthio-2-methoxy-N,N-dimethyl-N-gamma-hydroxypropyl-1-propyl ammonium bromide]	–	–	–	–	–	–	–	IC50 [1]: 3400 nM
CCCCCCCCCCCCCCCCCC1OCC(C[N+](C)(C)CCCO)O1 (racemic) [CJM 60, (±)-N-(2-heptadecyl-1,3-dioxolan-4-yl)methyl-N,N-dimethyl-gamma-hydroxypropyl ammonium bromide]	–	–	–	–	–	–	–	IC50 [1]: 6500 nM
CCCCCCCCCCCCCCCCOCC(C[N+]1(C)CCC(O)CC1)OCC (racemic) [CJM PIPER, (±)-1-methyl-1-(3-hexadecyloxy-2-ethoxypropyl)-4-hydroxy piperidinium iodide]	–	–	–	–	–	–	–	IC50 [1]: 2800 nM
CCCCCCCCCCCCCCCCSCC(C[N+](C)(C)CCO)OC (stereo not shown) [A]	97	90	73	60	54	42	–	–
CCCCCCCCCCCCCCCCSCC(C[N+](C)(C)CCCO)OCC (stereo not shown) [C]	78	64	67	60	59	37	–	–
CCCCCCCCCCCCCCCCSCC(C[N+](C)(C)C)OC (stereo not shown) [D]	112	88	81	74	54	29	–	–
COC(COc1cccc2ccccc12)C[N+](C)(C)CCO (stereo not shown) [E]	99	99	83	89	87	90	–	–
CC1(C)OCC(C[N+](C)(C)CCO)O1 (stereo not shown) [F]	88	84	87	88	96	87	–	–
CCCCCCCCCCCCCCCCCC1OCC(C[N+](C)(C)CCCO)O1 (stereo not shown) [G]	44	43	26	12	9	9	–	–
CCCCCCCCCCCCCCCCOCC(C[N+](C)(C)CCO)OC (stereo not shown) [H]	107	95	87	64	42	29	–	–
CCCCCCCCCCCCCCCCCC(=O)OCC[N+](C)(C)CCO [II, 2-octadecanoyloxy-N,N-dimethyl-N-β-hydroxyethyl-1-ethyl ammonium iodide]	–	–	–	–	–	–	16000	–
CCCCCCCCCCCCOCC[N+](C)(C)CCO.[I-] [III, 2-dodecyloxy-N,N-dimethyl-N-β-hydroxyethyl-1-ethyl ammonium iodide]	–	–	–	–	–	–	780 ± 30	IC50 [4]: 4730 ± 870 nM; 77/KB [4]: 6.1 ± 1.15
CCCCCCCCCCCCCCOCC[N+](C)(C)CCO.[I-] [IV, 2-tetradecyloxy-N,N-dimethyl-N-β-hydroxyethyl-1-ethyl ammonium iodide]	–	–	–	–	–	–	320 ± 120	IC50 [4]: 1530 ± 230 nM; 77/KB [4]: 4.8 ± 1.94
C[N+](C)(CCO)CCOc1ccccc1 [IX, 2-Phenoxy-N,N-dimethyl-N-β-hydroxyethyl-1-ethyl ammonium iodide]	–	–	–	–	–	–	–	IC50 ([3]; KB): > 100000 nM
CCCCCCCCCCCCCCCCOCCC[N+](C)(C)C [KLM 69, 3-hexadecyloxy-N,N,N-trimethyl-1-propyl ammonium bromide]	–	–	–	–	–	–	–	IC50 [1]: 1600 nM
CCCCCCCCCCCCCCCCOCCC[n+]1ccccc1 [KLM 70, 1-(3-hexadecyloxypropyl) pyridium bromide]	–	–	–	–	–	–	–	IC50 [1]: 800 nM
CCCCCCCCCCCCCCCCOCC[N+](C)(C)CCO.[I-] [V, 2-hexadecyloxy-N,N-dimethyl-N-β-hydroxyethyl-1-ethyl ammonium iodide]	–	–	–	–	–	–	330 ± 120	IC50 [4]: 1420 ± 500 nM; 77/KB [4]: 4.3 ± 2.15
CCCCCCCCCCCCCCCCOCC[N+](C)(C)CCCCO.[I-] [VII, 2-hexadecyloxy-N,N-dimethyl-N-delta-hydroxybutyl-1-ethyl ammonium iodide]	–	–	–	–	–	–	440 ± 110	IC50 [4]: 2270 ± 930 nM; 77/KB [4]: 5.2 ± 2.50
CCCCCCCCCCCCCCCCOCC(C[N+](C)(C)CCO)OC (stereo not shown) [XII]	–	–	–	–	–	–	260 ± 50	IC50 [4]: 1270 ± 410 nM; 77/KB [4]: 4.9 ± 1.84
